In general, EC50 refers to the midpoint of the concentration-response curve. As a reminder, the EC90 is the concentration at which the effect reaches the 90% level.

These results are taken from patent publication US8415321B2, “Nucleoside derivatives for treatment of Caliciviridae infections, including Norovirus infections” (priority 2008, dated 2013).

This assay relates to Norwalk GI.1 replicon. The assay is described as follows: Norwalk GI.1 replicon assay (in vitro anti-viral activity). The following applies: Norovirus. Format: cell-based. An excerpt:
The Norwalk GI.1 strain (Chang, K. O., et al. (2006) Virology 353:463-473), the GII-4 strain replicon, as well other Norovirus replicons can be used in assays to determine the in vitro antiviral activity of the compounds described herein, or other compounds or compound libraries. In some embodiments, the replicon systems are subgenomic and therefore allow evaluation of small molecule inhibitors of non-structural proteins. This can provide the same benefits to Norovirus drug discovery that Hepatitis C replicons contributed to the discovery of therapeutics useful for treatment of that virus (Stuyver, L. J., et al. (2006) Antimicrob. Agents Chemother. 47:244-254).

Molecule `CC1(O)C(O)[C@@H](CO)O[C@H]1n1ccc(N)nc1=O` (some centres unmarked) [2′-C-methyl-cytosine] had an EC50 of 2100 nM and an EC90 of 8.9 µM.
